Measured values published in paper PMC8954004, “Biochemical Basis of Xylooligosaccharide Utilisation by Gut Bacteria” (International Journal of Molecular Sciences, 2022).

Experiments:
Bp-XylX-2 = biological target: T1, Bp-XylX-2 (Blautia producta, UniProt A0ABX6JGM7); experiment: inhibition of pNP-Xyl hydrolysis, absorbance […] nm; format: biochemical; details: 2 mM pNP-Xyl, 50 mM sodium phosphate pH 5.7, 45 °C, 5 min; 200 mM xylose
T1 construct: gene GXM18_22300; recombinant E. coli Rosetta (DE3), pET28a, His-tag, any signal peptide excluded; ~75 kDa; catalytic Asp386 and Glu409; strain proteome UP000464715

Bp-XylX-1 = biological target: T2, Bp-XylX-1 (Blautia producta, UniProt A0ABX6JHR7); experiment: inhibition of pNP-Xyl hydrolysis, absorbance […] nm; format: biochemical; details: 2 mM pNP-Xyl, 50 mM sodium phosphate pH 5.7, 45 °C, 5 min; 200 mM xylose
T2 construct: gene GXM18_27615; recombinant E. coli Rosetta (DE3), pET28a, His-tag, any signal peptide excluded; ~75 kDa; catalytic Asp371 and Glu408; strain proteome UP000464715

Lr-XylC = biological target: T3, Lr-XylC (Limosilactobacillus reuteri, UniProt A0A0S4NRU4); experiment: inhibition of pNP-Xyl hydrolysis, absorbance […] nm; format: biochemical; details: 2 mM pNP-Xyl, 50 mM sodium phosphate pH 5.7, 45 °C, 5 min; 200 mM xylose
T3 construct: recombinant E. coli Rosetta (DE3), pET28a, His-tag, any signal peptide excluded; ~75 kDa; catalytic Asp382 and Glu415
T3 sequence (A0A0S4NRU4 1-679): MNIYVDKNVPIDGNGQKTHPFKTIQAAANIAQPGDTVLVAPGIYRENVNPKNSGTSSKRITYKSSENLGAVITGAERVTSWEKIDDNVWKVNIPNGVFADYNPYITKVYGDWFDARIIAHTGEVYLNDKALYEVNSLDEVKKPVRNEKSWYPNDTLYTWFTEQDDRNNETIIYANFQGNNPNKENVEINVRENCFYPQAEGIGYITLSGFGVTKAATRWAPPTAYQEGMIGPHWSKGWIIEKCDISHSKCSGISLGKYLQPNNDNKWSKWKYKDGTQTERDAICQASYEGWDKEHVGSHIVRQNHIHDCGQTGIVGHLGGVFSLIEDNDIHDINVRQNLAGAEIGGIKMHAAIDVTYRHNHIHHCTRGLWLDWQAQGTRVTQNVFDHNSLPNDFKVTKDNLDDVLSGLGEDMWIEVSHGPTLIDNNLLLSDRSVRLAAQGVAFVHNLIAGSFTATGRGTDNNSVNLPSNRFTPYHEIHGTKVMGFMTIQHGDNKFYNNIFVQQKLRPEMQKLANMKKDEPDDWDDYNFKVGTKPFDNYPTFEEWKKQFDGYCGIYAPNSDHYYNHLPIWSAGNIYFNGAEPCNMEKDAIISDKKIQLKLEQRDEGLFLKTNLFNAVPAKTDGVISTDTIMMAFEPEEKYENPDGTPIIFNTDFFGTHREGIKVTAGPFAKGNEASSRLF

purified protein = substrate: O=[N+]([O-])c1ccc(O[C@@H]2OC[C@@H](O)[C@H](O)[C@H]2O)cc1; experiment: purified protein; format: biochemical, Limosilactobacillus reuteri; details: sodium phosphate pH 5.7 (50 mM in Table 1, 10 mM in methods), 45 °C, 10 min, 1.3 µM enzyme

T1 sequence (A0ABX6JGM7 entry or part of it): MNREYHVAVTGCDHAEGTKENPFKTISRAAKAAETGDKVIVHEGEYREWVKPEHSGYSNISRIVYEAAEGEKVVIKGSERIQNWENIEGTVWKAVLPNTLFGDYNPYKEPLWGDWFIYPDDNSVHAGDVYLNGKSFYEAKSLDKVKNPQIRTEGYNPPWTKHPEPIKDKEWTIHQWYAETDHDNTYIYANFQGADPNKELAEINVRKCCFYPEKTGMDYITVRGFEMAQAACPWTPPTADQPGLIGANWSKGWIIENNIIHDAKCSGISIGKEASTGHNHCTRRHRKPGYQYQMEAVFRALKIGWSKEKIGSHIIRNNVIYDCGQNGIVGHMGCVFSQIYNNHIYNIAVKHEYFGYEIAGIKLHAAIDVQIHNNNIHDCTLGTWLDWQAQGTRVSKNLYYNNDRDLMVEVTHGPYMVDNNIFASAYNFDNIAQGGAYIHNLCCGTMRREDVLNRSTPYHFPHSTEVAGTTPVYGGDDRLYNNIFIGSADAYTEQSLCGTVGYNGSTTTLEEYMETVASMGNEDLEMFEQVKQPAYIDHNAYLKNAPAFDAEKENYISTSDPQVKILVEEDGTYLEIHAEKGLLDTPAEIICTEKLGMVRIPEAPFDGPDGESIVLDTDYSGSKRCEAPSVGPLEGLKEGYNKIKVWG
T2 sequence (A0ABX6JHR7 entry or part of it): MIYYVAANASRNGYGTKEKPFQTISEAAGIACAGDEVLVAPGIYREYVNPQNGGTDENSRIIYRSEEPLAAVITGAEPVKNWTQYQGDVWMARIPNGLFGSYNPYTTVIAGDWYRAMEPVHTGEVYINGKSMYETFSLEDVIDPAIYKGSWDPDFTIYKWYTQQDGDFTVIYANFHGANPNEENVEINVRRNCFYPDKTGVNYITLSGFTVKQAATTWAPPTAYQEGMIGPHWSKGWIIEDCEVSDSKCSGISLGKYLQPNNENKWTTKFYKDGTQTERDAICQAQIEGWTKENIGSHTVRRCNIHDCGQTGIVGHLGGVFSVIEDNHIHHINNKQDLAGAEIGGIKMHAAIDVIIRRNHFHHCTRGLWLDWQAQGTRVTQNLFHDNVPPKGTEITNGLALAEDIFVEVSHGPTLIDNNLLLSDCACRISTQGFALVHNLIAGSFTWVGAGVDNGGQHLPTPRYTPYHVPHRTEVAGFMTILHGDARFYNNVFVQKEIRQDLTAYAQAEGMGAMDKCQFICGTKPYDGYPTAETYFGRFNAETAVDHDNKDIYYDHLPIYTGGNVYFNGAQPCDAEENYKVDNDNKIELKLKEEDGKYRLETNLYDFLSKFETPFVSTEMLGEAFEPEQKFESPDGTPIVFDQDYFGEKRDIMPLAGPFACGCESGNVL

Molecule	% reduction in activity at 200 mM (Bp-XylX-2)	% reduction in activity at 200 mM (Bp-XylX-1)	% reduction in activity at 200 mM (Lr-XylC)	Km (purified protein) [µM]	kcat (purified protein) [s⁻¹]	kcat/Km (purified protein) [M⁻¹ s⁻¹]
OC1OC[C@@H](O)[C@H](O)[C@H]1O (stereo partly drawn) [xylose]	~ 26%	~ 42%	~ 12%	–	–	–
Lr-XylC (Limosilactobacillus reuteri subsp. suis) (protein, recombinant E. coli Rosetta (DE3), pET28a, His-tag, any signal peptide excluded; ~75 kDa; catalytic Asp382 and Glu415) MNIYVDKNVPIDGNGQKTHPFKTIQAAANIAQPGDTVLVAPGIYRENVNPKNSGTSSKRITYKSSENLGAVITGAERVTSWEKIDDNVWKVNIPNGVFADYNPYITKVYGDWFDARIIAHTGEVYLNDKALYEVNSLDEVKKPVRNEKSWYPNDTLYTWFTEQDDRNNETIIYANFQGNNPNKENVEINVRENCFYPQAEGIGYITLSGFGVTKAATRWAPPTAYQEGMIGPHWSKGWIIEKCDISHSKCSGISLGKYLQPNNDNKWSKWKYKDGTQTERDAICQASYEGWDKEHVGSHIVRQNHIHDCGQTGIVGHLGGVFSLIEDNDIHDINVRQNLAGAEIGGIKMHAAIDVTYRHNHIHHCTRGLWLDWQAQGTRVTQNVFDHNSLPNDFKVTKDNLDDVLSGLGEDMWIEVSHGPTLIDNNLLLSDRSVRLAAQGVAFVHNLIAGSFTATGRGTDNNSVNLPSNRFTPYHEIHGTKVMGFMTIQHGDNKFYNNIFVQQKLRPEMQKLANMKKDEPDDWDDYNFKVGTKPFDNYPTFEEWKKQFDGYCGIYAPNSDHYYNHLPIWSAGNIYFNGAEPCNMEKDAIISDKKIQLKLEQRDEGLFLKTNLFNAVPAKTDGVISTDTIMMAFEPEEKYENPDGTPIIFNTDFFGTHREGIKVTAGPFAKGNEASSRLF	–	–	–	230 ± 20	11.4 ± 0.2	49000
